Laboratory results reported in US20060002913A1, “Use of histamine and related compounds to treat disorders affecting muscle function” (priority 2004, published 2006).

Experiments:
[1] = target: membrane bound non-mitochondrial oxidase of stimulated phagocytes (Homo sapiens, UniProt P04839); details: substrate of the oxidase that converts oxygen to superoxide; cited from earlier work
[2] = system: patient suffering from Acute Myelogenous Leukemia (AML) and fibromyalgia; details: given with IL-2, subcutaneously two times per day, 0.5 mg per injection, 21-day cycles repeated for 18 months with 21-day intermissions
Method: A patient, suffering from Acute Myelogenous Leukemia (AML) and fibromyalgia received treatment with histamine dihydrochloride and IL-2. Histamine dihydrochloride was administered subcutaneously two times per day at a dosage of 0.5 mg per injection for a period of 21 consecutive days.
The above 21-day cycle was repeated for 18 months with 21-day intermissions between cycles.

[3] = system: patient with amyotrophic lateral sclerosis; details: orally 1 mg/day for six months
Method: A patient with amyotrophic lateral sclerosis received treatment with histamine dihydrochloride. Histamine dihydrochloride was administered orally at a dosage of 1 mg/day for a period of six months.

[4] = system: subjects suffering from muscle pain exacerbated by ROS and/or inflammatory cytokines; experiment: Inhibition of muscle pain, self-rated pain scale 1 to 10 (Example 3); assay type: in vivo, human; details: effective dose, after several weeks of treatment; groups of 10 subjects; vs placebo
Method: Subjects suffering from muscle pain exacerbated by ROS and/or inflammatory cytokines are identified. The subjects are asked to rate their pain on a scale of 1 to 10, with 1 indicating no pain or mild pain and 10 indicating severe pain. The subjects are then separated into 11 groups of 10 subjects each. […] Subjects in Group 11 are administered a placebo. After several weeks of treatment, subjects are again asked to rate their pain using the scale above.

[5] = system: individuals suffering from multiple sclerosis; details: orally 10, 30, 50, 100, 200 and 1,000 mg; vs placebo
Method: Individuals suffering from multiple sclerosis are identified. The individuals are asked to fill out a questionnaire regarding commonly experienced symptoms experienced by MS patients as well as the rate and severity of each symptom. The individuals are then separated into 7 groups of 20 individuals. […] Individuals in Group 7 are administered a placebo. Following the course of treatment, the individuals are again asked to fill out the same questionnaire.

Row | Compound | Km [1] | muscle pain, self-rated on a scale of 1 to 10 [4] | other results
1 | NC(=O)C1=CN([C@@H]2O[C@H](COP(=O)(O)OP(=O)(O)OC[C@H]3O[C@@H](n4cnc5c(N)ncnc54)[C@H](O)[C@@H]3O)[C@@H](O)[C@H]2O)C=CC1 [NADH] | 450 µM |  | 
2 | NC(=O)C1=CN([C@@H]2O[C@H](COP(=O)(O)OP(=O)(O)OC[C@H]3O[C@@H](n4cnc5c(N)ncnc54)[C@H](OP(=O)(O)O)[C@@H]3O)[C@@H](O)[C@H]2O)C=CC1 [NADPH] | 45 µM |  | 
3 | Cl.Cl.NCCc1c[nH]cn1 [histamine dihydrochloride] |  | reduction in muscle pain | patient's symptoms (fibromyalgia muscle pain) [2]: symptoms disappeared while on treatment and returned during intermissions; progression of ALS [3]: arrested
4 | NCCc1c[nH]cn1.O=P(O)(O)O [histamine phosphate] |  | reduction in muscle pain | 
5 | NCCc1c[nH]cn1 [histamine] |  | reduction in muscle pain | rate and severity of symptoms associated with muscle damage (questionnaire) [5]: decrease in both the rate and severity of symptoms associated with muscle damage
6 | NCCc1c[nH]c2ccc(O)cc12 [serotonin] |  | reduction in muscle pain | 
